EC50 data for 27 molecules are collected here from patent US20230083973A1, “SUBSTITUTED CYCLOPROPYL-2,2'-BIP[…], ANALOGUES THEREOF, AND METHODS USING SAME” (priority 2019, published 2023).

Each structure is given as a SMILES string.

The first assay has as its system HBsAg. The assay is described as follows: HBsAg assay: inhibition of HBsAg in HepG2.2.15 cells (chemiluminescence immunoassay of supernatant). It counts as cell-based, hepatitis B virus. The note with it: Hepatitis B virus, HepG2.2.15, 144 h, read-out: sAg EC50, HepG2.2.15 cells; HBsAg in supernatant at day 6 after exposure to compound; 0.5% DMSO. The protocol: Inhibition of HBsAg was determined in HepG2.2.15 cells. Cells were maintained in culture medium containing 10% fetal calf serum, […], Glutamine, penicillin/streptomycin. Cells were seeded in 96-well collagen-coated plate at a density of 30,000 cells/well. Serially diluted compounds were added to cells next day at the final DMSO concentration of 0.5%. Cells were incubated with compounds for 2-3 days, after which medium was removed. Fresh medium containing compounds was added to cells for additional 3-4 days. At day 6 after exposure of compounds, supernatant was collected, the HBsAg immunoassay (microplate-based chemiluminescence immunoassay kits, CLIA, Autobio Diagnosics Co., Zhengzhou, China, Catalog # CL0310-2) was used to determine the level of HBsAg according to manufactory instruction. Dose-response curves were generated and the EC50 value (effective concentrations that achieved 50% inhibitory effect) were determined using XLfit software. In addition, cells were seeded at a density of 5,000 cells/well for determination of cell viability in the presence and absence of compounds by using CellTiter-Glo reagent (Promega).
Table 1 illustrates EC50 values obtained by the HBsAg assay for selected compounds.
One may read the EC50 as the concentration needed to bring the measured effect to its halfway point. In the case of `COCCCn1cnc2c(F)cc([C@@H]3C[C@H]3c3cnc(-c4ncccn4)nc3)cc21` (relative stereo) [Example 274, trans-6-(2-([2,2′-Bipyrimidin]-5-yl)cyclopropyl)-4-fluoro-1-(3-methoxypropyl)-1H-benzo[d]imidazole], the EC50 turned out to be 64 nM. `COCCCn1ncc2c(F)cc([C@@H]3C[C@H]3c3cnc(-c4ncccn4)nc3)cc21` (relative stereo) [Example 275, trans-6-(2-([2,2′-Bipyrimidin]-5-yl)cyclopropyl)-4-fluoro-1-(3-methoxypropyl)-1H-indazole]: the EC50 was 75 nM. The same measure, in the same setting: as for `COCCCn1ncc2c([C@@H]3C[C@H]3c3cnc(-c4ncccn4)nc3)ccc(F)c21` (relative stereo) [Example 276, trans-4-(2-([2,2′-Bipyrimidin]-5-yl)cyclopropyl)-7-fluoro-1-(3-methoxypropyl)-1H-indazole], the figure is 10 nM; as for `COCCCn1cc2c([C@@H]3C[C@H]3c3cnc(-c4ncccn4)nc3)ccc(F)c2n1` (relative stereo) [Example 277, trans-4-(2-([2,2′-Bipyrimidin]-5-yl)cyclopropyl)-7-fluoro-2-(3-methoxypropyl)-2H-indazole], 30 nM. Same read-out and setting: as for `Cc1nc2cc([C@@H]3C[C@H]3c3cnc(-c4ncccn4)nc3)ccc2s1` (relative stereo) [Example 278, trans-5-(2-([2,2′-Bipyrimidin]-5-yl)cyclopropyl)-2-methylbenzo[d]thiazole], the figure is 56 nM. Still for that read-out and setting: next, `COc1ccc(C2CC2c2cnc(-c3ncccn3)nc2)c(F)c1` (single isomer, unassigned) [Example 3, trans-5-(2-(2-Fluoro-4-methoxyphenyl)cyclopropyl)-2,2′-bipyrimidine]: 190 nM; `Fc1ccc(C2CC2c2ccnc(-c3ncccn3)n2)cc1F` (single isomer, unassigned) [Example 5, trans-4-(2-(3,4-Difluorophenyl)cyclopropyl)-2,2′-bipyrimidine]: 5000 nM. In the case of `COc1ccc(C2CC2c2cnc(-c3ncccn3)nc2)cc1F` (single isomer, unassigned) [Example 12, trans-5-(2-(3-Fluoro-4-methoxyphenyl)cyclopropyl)-2,2′-bipyrimidine], the EC50 is 110 nM.

With `COc1cc(C2CC2c2cnc(-c3ncccn3)nc2C)ccc1F` (single isomer, unassigned) [Example 17, trans-5-(2-(4-Fluoro-3-methoxyphenyl)cyclopropyl)-4-methyl-2,2′-bipyrimidine], the EC50 was determined as 650 nM. Still for that read-out and setting: as for `Fc1ccc(C2CC2c2cnc(-c3ncccn3)nc2)cc1N1CCCC1` (single isomer, unassigned) [Example 19, trans-5-(2-(4-Fluoro-3-(pyrrolidin-1-yl)phenyl)cyclopropyl)-2,2′-bipyrimidine], the figure is 39 nM; as for `COCCOc1ccc(C2CC2c2cnc(-c3ncccn3)nc2)cc1F` (single isomer, unassigned) [Example 23, trans-5-(2-(3-Fluoro-4-(2-methoxyethoxy)phenyl)cyclopropyl)-2,2′-bipyrimidine], 95 nM.

Still in this assay, the particulars now being: read-out: sAg EC50; HepG2.2.15 cells; HBsAg in supernatant at day 6 after exposure to compound; 0.5% DMSO.
`COc1ccc(C2CC2c2cnc(-c3ncccn3)nc2)c(F)c1` (single isomer, unassigned) [Example 2, trans-5-(2-(2-Fluoro-4-methoxyphenyl)cyclopropyl)-2,2′-bipyrimidine]: the EC50 was determined as 230 nM. For the molecule `Fc1ccc(C2CC2c2ccnc(-c3ncccn3)n2)cc1F` (single isomer, unassigned) [Example 6, trans-4-(2-(3,4-Difluorophenyl)cyclopropyl)-2,2′-bipyrimidine], the EC50 came to 10000 nM. Still for that read-out and setting: as for `COc1cc(F)ccc1C1CC1c1cnc(-c2ncccn2)nc1` (single isomer, unassigned) [Example 8, trans-5-(2-(4-Fluoro-2-methoxyphenyl)cyclopropyl)-2,2′-bipyrimidine], the figure is 450 nM. Consider `COc1cc(F)ccc1C1CC1c1cnc(-c2ncccn2)nc1` (single isomer, unassigned) [Example 9, trans-5-(2-(4-Fluoro-2-methoxyphenyl)cyclopropyl)-2,2′-bipyrimidine], for which the EC50 is 85 nM. Still for that read-out and setting: next, `COc1cc(C2CC2c2cnc(-c3ncccn3)nc2)ccc1F` (single isomer, unassigned) [Example 10, trans-5-(2-(4-Fluoro-3-methoxyphenyl)cyclopropyl)-2,2′-bipyrimidine]: 40 nM. Same read-out and setting: as for `COc1cc(C2CC2c2cnc(-c3ncccn3)nc2)ccc1F` (single isomer, unassigned) [Example 11, trans-5-(2-(4-Fluoro-3-methoxyphenyl)cyclopropyl)-2,2′-bipyrimidine], the figure is 730 nM; as for `COc1ccc(C2CC2c2cnc(-c3ncccn3)nc2)cc1F` (single isomer, unassigned) [Example 13, trans-5-(2-(3-Fluoro-4-methoxyphenyl)cyclopropyl)-2,2′-bipyrimidine], 82 nM; as for `Fc1ccc(C2CC2c2cnc(-c3ncccn3)nc2)cc1F` (single isomer, unassigned) [Example 14, trans-5-(2-(3,4-Difluorophenyl)cyclopropyl)-2,2′-bipyrimidine], 1000 nM. On to `Fc1ccc(C2CC2c2cnc(-c3ncccn3)nc2)cc1F` (single isomer, unassigned) [Example 15, trans-5-(2-(3,4-Difluorophenyl)cyclopropyl)-2,2′-bipyrimidine], for which the EC50 was determined as 76 nM. Consider `COc1cc(C2CC2c2cnc(-c3ncccn3)nc2C)ccc1F` (single isomer, unassigned) [Example 18, trans-5-(2-(4-Fluoro-3-methoxyphenyl)cyclopropyl)-4-methyl-2,2′-bipyrimidine], for which the EC50 worked out at 890 nM. With `Fc1ccc(C2CC2c2cnc(-c3ncccn3)nc2)cc1N1CCCC1` (single isomer, unassigned) [Example 20, trans-5-(2-(4-Fluoro-3-(pyrrolidin-1-yl)phenyl)cyclopropyl)-2,2′-bipyrimidine], the EC50 was found to be 23 nM.

On to `COCCOc1cc(C2CC2c2cnc(-c3ncccn3)nc2)ccc1F` (single isomer, unassigned) [Example 21, trans-5-(2-(4-Fluoro-3-(2-methoxyethoxy)phenyl)cyclopropyl)-2,2′-bipyrimidine], for which the EC50 is 490 nM.

On to `COCCOc1cc(C2CC2c2cnc(-c3ncccn3)nc2)ccc1F` (single isomer, unassigned) [Example 22, trans-5-(2-(4-Fluoro-3-(2-methoxyethoxy)phenyl)cyclopropyl)-2,2′-bipyrimidine], for which the EC50 is 59 nM.

In the case of `COCCOc1ccc(C2CC2c2cnc(-c3ncccn3)nc2)cc1F` (single isomer, unassigned) [Example 24, trans-5-(2-(3-Fluoro-4-(2-methoxyethoxy)phenyl)cyclopropyl)-2,2′-bipyrimidine], the EC50 turned out to be 150 nM.

Turning to `Fc1ccc(C2CC2c2cnc(-c3ncccn3)nc2)cc1OCC1CC1` (single isomer, unassigned) [Example 25, trans-5-(2-(3-(Cyclopropylmethoxy)-4-fluorophenyl)cyclopropyl)-2,2′-bipyrimidine], the EC50 was 270 nM. Still for that read-out and setting: as for `Fc1ccc(C2CC2c2cnc(-c3ncccn3)nc2)cc1OCC1CC1` (single isomer, unassigned) [Example 26, trans-5-(2-(3-(Cyclopropylmethoxy)-4-fluorophenyl)cyclopropyl)-2,2′-bipyrimidine], the figure is 29 nM.
